The record followed here is US20240270715A1, “INHIBITORS OF TRANSGLUTAMINASES” (ZEDIRA GMBH, priority 2021, published 2024).

Each structure is given as a SMILES string.

Series [1] concerns the target T1, recombinant human transglutaminase 2 (Homo sapiens, UniProt P21980).
T1 sequence (P21980 1-687): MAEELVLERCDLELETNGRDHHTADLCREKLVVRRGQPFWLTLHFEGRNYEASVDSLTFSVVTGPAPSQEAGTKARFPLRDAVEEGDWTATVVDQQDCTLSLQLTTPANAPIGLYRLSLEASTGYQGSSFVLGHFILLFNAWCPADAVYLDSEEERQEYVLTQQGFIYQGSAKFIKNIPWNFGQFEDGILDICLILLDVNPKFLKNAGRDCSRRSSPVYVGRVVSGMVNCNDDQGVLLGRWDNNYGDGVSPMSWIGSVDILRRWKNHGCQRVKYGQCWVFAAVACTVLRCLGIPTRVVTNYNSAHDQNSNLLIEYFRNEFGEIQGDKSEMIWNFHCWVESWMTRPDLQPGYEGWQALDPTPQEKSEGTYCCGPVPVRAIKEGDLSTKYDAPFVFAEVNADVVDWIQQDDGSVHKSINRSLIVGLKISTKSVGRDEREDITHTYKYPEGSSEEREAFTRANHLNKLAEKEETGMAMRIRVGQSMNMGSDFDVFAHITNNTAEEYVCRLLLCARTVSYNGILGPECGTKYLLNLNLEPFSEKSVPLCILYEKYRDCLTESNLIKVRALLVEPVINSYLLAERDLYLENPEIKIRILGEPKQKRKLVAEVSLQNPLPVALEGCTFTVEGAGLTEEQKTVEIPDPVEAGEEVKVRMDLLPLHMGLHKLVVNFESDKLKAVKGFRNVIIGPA
The series is described as follows: Transglutaminase assay: incorporation of dansylcadaverine into dimethylcasein (DCC-assay). It is filed as biochemical. The settings on record: recombinant human TG2 10 nM, dansylcadaverine/dimethylcasein; read-out: IC50 TG2. The gist of the method: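 Recombinant human TG2 (10 nM final) incorporates dansylcadaverine (16.7 μM) into N,N-dimethylcasein (4 μM) in Tris-HCl buffer, pH 8.0, with 10 mM CaCl2 and 10 mM glutathione. Fluorescence (λex 330, λem 500 nm) followed 30 min. The slope between 20–30 min gives activity versus DMSO control, and IC50 comes from the concentration–activity plot.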

A short description of series [2]: Caco-2 permeability assay (CacoReady kit). Format: in vitro ADME. The settings on record: human. In outline:
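Compounds are tested on pre-formed Caco-2 barriers supplied as a ready-to-use kit, following the kit protocol, and the Papp value is derived to estimate intestinal absorption.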

Series [3] is described as follows: Log D by shake flask method (octanol / PBS pH 7.4, HPLC). The settings on record: octanol / PBS pH 7.4, shake flask; read-out: logD. Format: physicochemical. In outline: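 Log D is derived by HPLC measurement of how the compound distributes between octanol and pH 7.4 phosphate-buffered saline in a shake flask.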

As to `CCNC(=O)C(=O)CC[C@H](NC(=O)C1Cc2ccccc2C1)C(=O)Nc1cccn(CC(=O)NC2C3CC4CC(C3)CC2C4)c1=O` (stereo partly drawn) [Compound I-39, (S)-2-(2,3-dihydro-1H-indene-2-carboxamido)-N6-ethyl-N1-(1-(2-(2-adamantylamino)-2-oxoethyl)-2-oxo-1,2-dihydropyridin-3-yl)-5-oxohexanediamide], in series [1], the IC50 – broadly, the midpoint of a concentration-inhibition curve – was under 150 nM. The Papp – broadly, a coefficient for how fast a substance crosses the barrier – in series [2] fell in the range of 1 to 10 ×10⁻⁶ cm/s. The logD – broadly, the decadic logarithm of the distribution of all forms, ionised or not, between an organic phase and buffer at a given pH – in series [3] lay in the range of 3 to 5.

Regarding `CCNC(=O)C(=O)CC[C@H](NC(=O)c1sc(C(F)(F)F)nc1C)C(=O)Nc1cccn(CC(=O)NC2C3CC4CC(C3)CC2C4)c1=O` (stereo partly drawn) [Compound I-40, (S)-N1-ethyl-N6-(1-(2-(2-adamantylamino)-2-oxoethyl)-2-oxo-1,2-dihydropyridin-3-yl)-5-(4-methyl-2-(trifluoromethyl)thiazole-5-carboxamido)-2-oxohexanediamide], the IC50 in series [1] is under 150 nM. The same compound yielded a Papp in series [2] of 1 to 10 ×10⁻⁶ cm/s. For the same compound, the logD in series [3] is 1 to 3.

Regarding `CCNC(=O)C(=O)CC[C@H](NC(=O)c1sc(C(F)(F)F)nc1Br)C(=O)Nc1cccn(CC(=O)NC2C3CC4CC(C3)CC2C4)c1=O` (stereo partly drawn) [Compound I-41, (S)-2-(4-bromo-2-(trifluoromethyl)thiazole-5-carboxamido)-N6-ethyl-N1-(1-(2-(2-adamantylamino)-2-oxoethyl)-2-oxo-1,2-dihydropyridin-3-yl)-5-oxohexanediamide], the IC50 in series [1] is under 150 nM. Besides, the Papp in series [2] was 1 to 10 ×10⁻⁶ cm/s. Further, the logD in series [3] was in the range of 1 to 3.

For `CCNC(=O)C(=O)CC[C@H](NC(=O)c1sc(-c2ccccc2)nc1C)C(=O)Nc1cccn(CC(=O)NC2C3CC4CC(C3)CC2C4)c1=O` (stereo partly drawn) [Compound I-42, (S)-N1-ethyl-N6-(1-(2-(2-adamantylamino)-2-oxoethyl)-2-oxo-1,2-dihydropyridin-3-yl)-5-(4-methyl-2-phenylthiazole-5-carboxamido)-2-oxohexanediamide], in series [1], the IC50 lay in the range of 150 to 600 nM. Besides, in series [2], the Papp is 1 to 10 ×10⁻⁶ cm/s. In addition, the logD in series [3] was in the range of 3 to 5.

In the case of `CCNC(=O)C(=O)CC[C@H](NC(=O)c1sc(Br)cc1C)C(=O)Nc1cccn(CC(=O)NC2C3CC4CC(C3)CC2C4)c1=O` (stereo partly drawn) [Compound I-43, (S)-2-(5-bromo-3-methylthiophene-2-carboxamido)-N6-ethyl-N1-(1-(2-(2-adamantylamino)-2-oxoethyl)-2-oxo-1,2-dihydropyridin-3-yl)-5-oxohexanediamide], the IC50 in series [1] is under 150 nM. The Papp in series [2] was 1 to 10 ×10⁻⁶ cm/s. In series [3], the logD lay in the range of 3 to 5.

Take `CCNC(=O)C(=O)CC[C@H](NC(=O)c1sc(Br)cc1Br)C(=O)Nc1cccn(CC(=O)NC2C3CC4CC(C3)CC2C4)c1=O` (stereo partly drawn) [Compound I-44, (S)-2-(3,5-dibromothiophene-2-carboxamido)-N6-ethyl-N1-(1-(2-(2-adamantylamino)-2-oxoethyl)-2-oxo-1,2-dihydropyridin-3-yl)-5-oxohexanediamide]: the IC50 in series [1] is under 150 nM. The Papp in series [2] fell in the range of 1 to 10 ×10⁻⁶ cm/s. For the same compound, the logD in series [3] is 3 to 5.

For `CCNC(=O)C(=O)CC[C@H](NC(=O)c1oc(Br)cc1C)C(=O)Nc1cccn(CC(=O)NC2C3CC4CC(C3)CC2C4)c1=O` (stereo partly drawn) [Compound I-45, (S)-2-(5-bromo-3-methylfuran-2-carboxamido)-N6-ethyl-N1-(1-(2-(2-adamantylamino)-2-oxoethyl)-2-oxo-1,2-dihydropyridin-3-yl)-5-oxohexanediamide], the IC50 in series [1] was under 150 nM. This compound registered a Papp in series [2] of 1 to 10 ×10⁻⁶ cm/s. In addition, the logD in series [3] lay within 3 to 5.

In the case of `CCNC(=O)C(=O)CC[C@H](NC(=O)c1cc(Cl)sc1Cl)C(=O)Nc1cccn(CC(=O)NC2C3CC4CC(C3)CC2C4)c1=O` (stereo partly drawn) [Compound I-46, (S)-2-(2,5-dichlorothiophene-3-carboxamido)-N6-ethyl-N1-(1-(2-(2-adamantylamino)-2-oxoethyl)-2-oxo-1,2-dihydropyridin-3-yl)-5-oxohexanediamide], the IC50 in series [1] is under 150 nM. In series [2], this compound showed a Papp of 1 to 10 ×10⁻⁶ cm/s. The logD in series [3] was 3 to 5.

Consider `CCNC(=O)C(=O)CC[C@H](NC(=O)c1cc(Br)sc1Br)C(=O)Nc1cccn(CC(=O)NC2C3CC4CC(C3)CC2C4)c1=O` (stereo partly drawn) [Compound I-47, (S)-2-(2,5-dibromothiophene-3-carboxamido)-N6-ethyl-N1-(1-(2-(2-adamantylamino)-2-oxoethyl)-2-oxo-1,2-dihydropyridin-3-yl)-5-oxohexanediamide], for which, in series [1], the IC50 was under 150 nM. In series [2], this compound came in with a Papp of 1 to 10 ×10⁻⁶ cm/s. Also, the logD in series [3] lay within 3 to 5.

Regarding `CCNC(=O)C(=O)CC[C@H](NC(=O)c1nc(Cl)sc1Cl)C(=O)Nc1cccn(CC(=O)NC2C3CC4CC(C3)CC2C4)c1=O` (stereo partly drawn) [Compound I-48, (S)-2-(2,5-dichlorothiazole-4-carboxamido)-N6-ethyl-N1-(1-(2-(2-adamantylamino)-2-oxoethyl)-2-oxo-1,2-dihydropyridin-3-yl)-5-oxohexanediamide], the IC50 in series [1] was 150 to 600 nM. This compound registered a Papp in series [2] of 1 to 10 ×10⁻⁶ cm/s. Further, the logD in series [3] was 1 to 3.

Consider `CCNC(=O)C(=O)CC[C@H](NC(=O)c1cc(C)oc1C)C(=O)Nc1cccn(CC(=O)NC2C3CC4CC(C3)CC2C4)c1=O` (stereo partly drawn) [Compound I-49, (S)-2-(2,5-dimethylfuran-3-carboxamido)-N6-ethyl-N1-(1-(2-(2-adamantylamino)-2-oxoethyl)-2-oxo-1,2-dihydropyridin-3-yl)-5-oxohexanediamide], for which the IC50 in series [1] is under 150 nM. The compound further showed an apparent permeability (Papp) in series [2] of 1 to 10 ×10⁻⁶ cm/s. Moreover, the logD in series [3] is 1 to 3.

Regarding `CCNC(=O)C(=O)CC[C@H](NC(=O)c1nc(Br)cs1)C(=O)Nc1cccn(CC(=O)NC2C3CC4CC(C3)CC2C4)c1=O` (stereo partly drawn) [Compound I-50, (S)-2-(4-bromothiazole-2-carboxamido)-N6-ethyl-N1-(1-(2-(2-adamantylamino)-2-oxoethyl)-2-oxo-1,2-dihydropyridin-3-yl)-5-oxohexanediamide], in series [1], the IC50 was under 150 nM. The Papp in series [2] was 1 to 10 ×10⁻⁶ cm/s. The logD in series [3] fell in the range of 3 to 5.

Take `CCNC(=O)C(=O)CC[C@H](NC(=O)c1cc(Br)cs1)C(=O)Nc1cccn(CC(=O)NC2C3CC4CC(C3)CC2C4)c1=O` (stereo partly drawn) [Compound I-51, (S)-2-(4-bromothiophene-2-carboxamido)-N6-ethyl-N1-(1-(2-(2-adamantylamino)-2-oxoethyl)-2-oxo-1,2-dihydropyridin-3-yl)-5-oxohexanediamide]: the IC50 in series [1] is under 150 nM. The compound also displayed a Papp in series [2] of 1 to 10 ×10⁻⁶ cm/s. Also, in series [3], the logD was 3 to 5.

`CCNC(=O)C(=O)CC[C@H](NC(=O)c1cc(Br)c(Cl)s1)C(=O)Nc1cccn(CC(=O)NC2C3CC4CC(C3)CC2C4)c1=O` (stereo partly drawn) [Compound I-52, (S)-2-(4-bromo-5-chlorothiophene-2-carboxamido)-N6-ethyl-N1-(1-(2-(2-adamantylamino)-2-oxoethyl)-2-oxo-1,2-dihydropyridin-3-yl)-5-oxohexanediamide]: the IC50 in series [1] is under 150 nM. The Papp in series [2] was 1 to 10 ×10⁻⁶ cm/s. In addition, the logD in series [3] fell in the range of 3 to 5.

Turning to `CCNC(=O)C(=O)CC[C@H](NC(=O)c1cc(Br)c(Br)s1)C(=O)Nc1cccn(CC(=O)NC2C3CC4CC(C3)CC2C4)c1=O` (stereo partly drawn) [Compound I-53, (S)-2-(4,5-dibromothiophene-2-carboxamido)-N6-ethyl-N1-(1-(2-(2-adamantylamino)-2-oxoethyl)-2-oxo-1,2-dihydropyridin-3-yl)-5-oxohexanediamide], the IC50 in series [1] was under 150 nM. This compound came in with a Papp in series [2] of 1 to 10 ×10⁻⁶ cm/s. Further, the logD in series [3] fell in the range of 3 to 5.

Take `CCNC(=O)C(=O)CC[C@H](NC(=O)c1cc(Cl)c(Cl)s1)C(=O)Nc1cccn(CC(=O)NC2C3CC4CC(C3)CC2C4)c1=O` (stereo partly drawn) [Compound I-54, (S)-2-(4,5-dichlorothiophene-2-carboxamido)-N6-ethyl-N1-(1-(2-(2-adamantylamino)-2-oxoethyl)-2-oxo-1,2-dihydropyridin-3-yl)-5-oxohexanediamide]: in series [1], the IC50 was under 150 nM. The same compound showed a Papp in series [2] of 1 to 10 ×10⁻⁶ cm/s. The logD in series [3] was 3 to 5.

On to `CCNC(=O)C(=O)CC[C@H](NC(=O)[C@@H]1CCCN1C(C)=O)C(=O)Nc1cccn(CC(=O)NC2C3CC4CC(C3)CC2C4)c1=O` (stereo partly drawn) [Compound I-55, (S)-2-((S)-1-acetylpyrrolidine-2-carboxamido)-N6-ethyl-N1-(1-(2-(2-adamantylamino)-2-oxoethyl)-2-oxo-1,2-dihydropyridin-3-yl)-5-oxohexanediamide], for which the IC50 in series [1] fell in the range of 150 to 600 nM. Moreover, in series [2], the Papp was under 1 ×10⁻⁶ cm/s. Further, the logD in series [3] was in the range of 1 to 3.
